Laboratory results published in ChEMBL document CHEMBL1614632, “Trend analysis of a database of intravenous pharmacokinetic parameters in humans for 670 drug compounds” (Drug Metab Dispos, 2008).

Tests used:
[1] = clinical; conditions: human, in vivo, iv, CL
[2] = clinical; conditions: human, in vivo, iv
[3] = clinical; conditions: human, in vivo, iv, Vdss
[4] = clinical; conditions: human, in vivo, iv; remark: listed apart in the source
[5] = human, in vivo, iv
[6] = human, in vivo, iv; remark: listed apart in the source
[7] = human, in vivo, iv; remark: listed apart in the source
[8] = human, in vivo, iv; remark: listed apart in the source
[9] = clinical; conditions: human, in vivo, iv, t1/2
[10] = human, in vivo, iv; remark: listed apart in the source

Compound: COc1cc2c(cc1OC)[C@@H](Cc1cc(OC)c(OC)c(OC)c1)[N+](C)(CCCOC(=O)CC/C=C/CCC(=O)OCCC[N+]1(C)CCc3cc(OC)c(OC)cc3[C@H]1Cc1cc(OC)c(OC)c(OC)c1)CC2 (some centres undefined)
- clearance [1]: 5.2 mL/min/kg
- fraction unbound [2]: 0.7
- Vd [3]: 0.27 L/kg
- MRT [4]: 0.87 h
- t1/2 [5]: 0.83 h

Compound: O=[N+]([O-])O[C@@H]1CO[C@H]2[C@@H]1OC[C@@H]2O (stereo in doubt; form 1) [ISOSORBIDE MONONITRATE]
- Vdss [6]: 0.86 L/kg
- MRT [7]: 2.3 h
- CL [8]: 6.2 mL/min/kg
- t1/2 [5]: 1.9 h

Compound: O=[N+]([O-])O[C@@H]1CO[C@H]2[C@@H]1OC[C@@H]2O (stereo in doubt; form 2) [ISOSORBIDE MONONITRATE]
- MRT [7]: 5.8 h
- Vd [3]: 0.7 L/kg
- CL [8]: 2 mL/min/kg
- t1/2 [5]: 4.1 h

Compound: CCC1=C[C@@H]2CN(C1)Cc1c([nH]c3ccccc13)[C@@](C(=O)OC)(c1cc3c(cc1OC)N(C)[C@H]1[C@@](O)(C(=O)OC)[C@H](OC(C)=O)[C@]4(CC)C=CCN5CC[C@]31[C@@H]54)C2 (stereo in doubt; form 2) [VINORELBINE]
- fraction unbound [2]: 0.87
- Vdss [6]: 23 L/kg
- MRT [7]: 18 h
- CL [8]: 20 mL/min/kg
- t1/2 [5]: 26 h

Compound: C[C@H]1[C@H](OC(=O)CCC(=O)O)O[C@@H]2O[C@@]3(C)CC[C@H]4[C@H](C)CC[C@@H]1[C@@]24OO3 [ARTESUNATE]
- fraction unbound [2]: 0.25
- half-life [9]: 13.2 min
- MRT [4]: 0.32 h
- CL [8]: 1070 mL/min/kg

Compound: Clc1cccc(Cl)c1N=C1NCCN1 [CLONIDINE]
- clearance [1]: 4 mL/min/kg
- fraction unbound [2]: 0.56
- Vd [3]: 3.3 L/kg
- MRT [4]: 14 h
- t1/2 [5]: 7.6 h

Compound: COc1cc2c(c(OC)c1OC)-c1ccc(OC)c(=O)cc1[C@@H](NC(C)=O)CC2 [COLCHICINE]
- clearance [1]: 2.1 mL/min/kg
- Vd [3]: 6.1 L/kg
- MRT [4]: 49 h
- t1/2 [5]: 58 h

Compound: O=P1(N(CCCl)CCCl)NCCCO1 (centres undefined) [CYCLOPHOSPHAMIDE ANHYDROUS]
- MRT [4]: 11 h
- CL [8]: 1.1 mL/min/kg
- t1/2 [5]: 8 h

Compound: COc1cccc2c1C(=O)c1c(O)c3c(c(O)c1C2=O)C[C@@](O)(C(=O)CO)C[C@@H]3O[C@H]1C[C@H](N)[C@@H](O)[C@H](C)O1 [EPIRUBICIN]
- clearance [1]: 20 mL/min/kg
- Vd [3]: 45 L/kg
- MRT [4]: 38 h
- t1/2 [5]: 36 h

Compound: COC(=O)CCc1ccc(OCC(O)CNC(C)C)cc1 (centres undefined) [ESMOLOL]
- clearance [1]: 290 mL/min/kg
- fraction unbound [2]: 0.59
- Vd [3]: 1.2 L/kg
- MRT [4]: 0.07 h
- t1/2 [5]: 0.15 h

Compound: O=C(CCCN1CCC(O)(c2ccc(Cl)cc2)CC1)c1ccc(F)cc1 [HALOPERIDOL]
- half-life [9]: 2100 min
- Vd [3]: 17 L/kg
- MRT [4]: 36 h
- fu [10]: 0.08

Compound: O=[N+]([O-])O[C@H]1CO[C@H]2[C@@H]1OC[C@H]2O[N+](=O)[O-] [ISOSORBIDE DINITRATE]
- clearance [1]: 31 mL/min/kg
- fraction unbound [2]: 0.72
- Vdss [6]: 1.9 L/kg
- half-life [9]: 101 min
- MRT [4]: 1 h

Compound: C[C@@H](O)[C@H]1C(=O)N2C(C(=O)O)=C(S[C@@H]3CN[C@H](C(=O)N(C)C)C3)[C@H](C)[C@H]12 [MEROPENEM]
- clearance [1]: 3.9 mL/min/kg
- fraction unbound [2]: 0.87
- half-life [9]: 60 min
- MRT [7]: 1.3 h

Compound: COC(=O)C(c1ccccc1)C1CCCCN1 (centres undefined) [METHYLPHENIDATE]
- fraction unbound [2]: 0.85
- Vdss [6]: 2.2 L/kg
- MRT [7]: 4.5 h
- CL [8]: 0.55 mL/min/kg
- t1/2 [5]: 4.8 h

Compound: NCCCC[C@H](NC(=O)[C@@H](Cc1cc(Br)c(O)c(Br)c1)NC(=O)N1CCC(N2Cc3ccccc3NC2=O)CC1)C(=O)N1CCN(c2ccncc2)CC1 [OLCEGEPANT]
- clearance [1]: 2.6 mL/min/kg
- Vdss [6]: 0.31 L/kg
- half-life [9]: 150 min
- MRT [4]: 1.9 h

Compound: NCCC(O)(P(=O)(O)O)P(=O)(O)O [PAMIDRONIC ACID]
- clearance [1]: 2.5 mL/min/kg
- Vd [3]: 1.8 L/kg
- MRT [4]: 12 h
- t1/2 [5]: 32 h

Compound: COc1ccnc(C[S+]([O-])c2nc3ccc(OC(F)F)cc3[nH]2)c1OC (centres undefined) [PANTOPRAZOLE]
- clearance [1]: 2.2 mL/min/kg
- fraction unbound [2]: 0.02
- Vdss [6]: 0.17 L/kg
- half-life [9]: 114 min
- MRT [4]: 1.9 h

Compound: N=C(N)c1ccc(OCCCCCOc2ccc(C(=N)N)cc2)cc1 [PENTAMIDINE]
- clearance [1]: 74 mL/min/kg
- Vd [3]: 53 L/kg
- MRT [4]: 12 h
- t1/2 [5]: 25 h

Compound: COc1cc(NC(C)CCCN)c2ncccc2c1 (centres undefined) [PRIMAQUINE]
- clearance [1]: 5.8 mL/min/kg
- Vd [3]: 4 L/kg
- MRT [4]: 11 h
- t1/2 [5]: 7.1 h

Compound: CCCCS(=O)(=O)N[C@@H](Cc1ccc(OCCCCC2CCNCC2)cc1)C(=O)O [TIROFIBAN]
- fraction unbound [2]: 0.36
- Vdss [6]: 0.99 L/kg
- half-life [9]: 96 min
- MRT [7]: 1.8 h

Compound: CARBOPLATIN
- Vdss [6]: 0.26 L/kg
- MRT [7]: 3 h
- CL [8]: 1.5 mL/min/kg
- t1/2 [5]: 2 h
- fu [10]: 1

Compound: GADOVERSETAMIDE
- Vdss [6]: 0.16 L/kg
- MRT [7]: 2.2 h
- CL [8]: 1.2 mL/min/kg
- t1/2 [5]: 1.7 h
- fu [10]: 1

Compound: GENTAMICIN
- MRT [7]: 5.5 h
- t1/2 [5]: 4.7 h
- fu [10]: 1
